Measurements published in patent US12343326B2, “Psychoactive medicines and their use for treating psychiatric and neurological conditions and disorders” (Transcend Therapeutics, Inc., priority 2021, dated 2025).
Read-outs that look alike come from different tables or passages of the source.

Key:
5HT2C receptor [1] = molecular target: T1, 5HT2C receptor (Homo sapiens, UniProt P28335); assay: GPCRmax screen, agonist mode; type: cell-based; conditions: 1 or 10 mM; threshold 30%
T1 construct: beta-galactosidase enzyme fragment (PathHunter complementation tag); host or cells: PathHunter cell lines

mice = conditions: MDMA 7.5 mg/kg 30 minutes prior to extinction training (Young et al. 2015); cited from earlier work
[2] = tested on: rats (Sprague Dawley; Flinders Sensitive Line); conditions: cited from earlier work
5HT2C receptor [3] = molecular target: T1, 5HT2C receptor; assay: GPCRmax screen, antagonist mode; type: cell-based; conditions: 1 or 10 mM; threshold 50%
[4] = tested on: myelin basic protein (MBP); assay: Immunohistochemistry of myelin basic protein; type: in vivo, rat; conditions: 10 mg/kg IP, 24 h
Method: Immunohistochemistry: The in-life portion of the study was conducted at WuXi Apptec (Cranbury, NJ). Sectioning and staining of brains took place at Neuroscience Associates (NSA, Knoxville, TN). […] Brains were post-fixed in PFA before shipment to NSA for processing and staining. Hemisected brains were mounted, sectioned and stained using standard protocols with myelin-basic protein primary antibody (MBP SMI-99, 1:5000, Biolegend, San Diego, CA) and anti-mouse biotinylated secondary antibody (BA-2001, Vector Laboratories, Newark, CA). Slides were imaged using a Huron Digital Pathology TissueScope LE120 whole slide scanning system. 20× objective was used with a 0.4 μm/pixel resolution.

[5] = retrospective reports / meta-analysis of overdose deaths; cited from earlier work
[6] = tested on: gene expression in amygdala, frontal cortex, hippocampus; assay: RNA-sequencing of brain areas after a single dose; type: in vivo, rat
5HT2A receptor = molecular target: T2, 5HT2A receptor (Homo sapiens, UniProt P28223); assay: GPCRmax screen, agonist mode; type: cell-based; conditions: 1 or 10 mM; threshold 30%
T2 construct: beta-galactosidase enzyme fragment (PathHunter complementation tag); host or cells: PathHunter cell lines
T2 sequence (P28223 whole entry, the tested form may be a part): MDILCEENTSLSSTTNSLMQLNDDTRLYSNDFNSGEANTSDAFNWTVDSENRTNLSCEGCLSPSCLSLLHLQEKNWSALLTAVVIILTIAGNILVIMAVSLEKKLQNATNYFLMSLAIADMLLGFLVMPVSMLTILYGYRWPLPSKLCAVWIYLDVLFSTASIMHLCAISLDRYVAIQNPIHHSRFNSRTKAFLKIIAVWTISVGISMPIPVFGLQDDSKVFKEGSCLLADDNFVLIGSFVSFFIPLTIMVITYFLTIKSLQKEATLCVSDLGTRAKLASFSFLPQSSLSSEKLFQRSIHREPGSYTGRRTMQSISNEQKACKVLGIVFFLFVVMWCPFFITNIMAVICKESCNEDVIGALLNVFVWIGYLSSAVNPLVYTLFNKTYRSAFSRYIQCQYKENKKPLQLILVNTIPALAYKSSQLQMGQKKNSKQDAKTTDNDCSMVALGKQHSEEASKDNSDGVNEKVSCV

T1 sequence (P28335 33-458): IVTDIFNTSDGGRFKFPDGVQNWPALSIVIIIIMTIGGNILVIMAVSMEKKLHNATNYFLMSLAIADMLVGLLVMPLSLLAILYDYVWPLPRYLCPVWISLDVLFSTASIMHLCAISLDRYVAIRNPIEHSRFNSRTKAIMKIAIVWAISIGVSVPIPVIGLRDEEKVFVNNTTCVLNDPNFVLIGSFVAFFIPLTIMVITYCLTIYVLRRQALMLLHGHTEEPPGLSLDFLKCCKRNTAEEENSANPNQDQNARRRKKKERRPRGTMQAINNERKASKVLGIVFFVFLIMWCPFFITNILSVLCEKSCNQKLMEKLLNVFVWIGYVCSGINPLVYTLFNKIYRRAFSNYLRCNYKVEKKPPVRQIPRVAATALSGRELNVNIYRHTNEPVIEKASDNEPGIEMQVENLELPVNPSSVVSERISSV

In the case of `CNC(C)Cc1ccc2c(c1)OCO2` (racemic) [MDMA, 3,4-Methylenedioxymethamphetamine], the agonist % activity (5HT2C receptor [1]) is given as 28.0%, the “reduced freezing vs. saline (extinction recall)” value (mice) is given as 35% and the “reduction in immobility (FST)” value ([2]; MDMA 5 mg/kg, Flinders Sensitive Line rats) is given as 45%. For the same compound, the “reduction in immobility (FST)” value ([2]; MDMA 5 mg/kg, Sprague Dawley rats (Majumder et al. 2011)) was 45%, the “reduction in immobility (FST)” value ([2]; MDMA 10 mg/kg, Flinders Sensitive Line rats) was 93% and the “reduction in immobility (FST)” value ([2]; MDMA 10 mg/kg, Sprague Dawley rats (Majumder et al. 2011)) was 78%. The “antagonist activity (% inhibition)” value (5HT2C receptor [3]) was 52.2%, the “MBP expression, basolateral nucleus of the amygdala, vs. vehicle” value [4] was “significant reduction in MBP” and the “MBP expression, central nucleus of the amygdala, vs. vehicle” value [4] was “significant reduction in MBP”. The “MBP expression, cortex (control region)” value [4] was “No change in MBP”, the “blood concentration in overdose deaths” value [5] was 478 to 53900 ng/mL and the “more genes regulated than methylone, frontal cortex” value ([6]; 10 mg/kg IP) was roughly 72%. The “genes regulated by MDMA that are also regulated by methylone, amygdala” value ([6]; 10 mg/kg IP each) was 7% and the agonist % activity (5HT2A receptor) was 27.5%.
